{
  "source": "patent US11286278B2",
  "about": "“DPEP-1 binding agents and methods of use” (Arch Biopartners, Inc., priority 2018, dated 2022)",
  "key": {"[1]": {"assay": "Circular dichroism spectroscopy of LSALT peptide and analogs", "type": "physicochemical", "design": "Inducible Helical Structure (50% TFE-benign): unit not given here", "experimental": "The physical and chemical properties of protein therapeutics are critical factors that influence the ease of manufacturing, development and clinical use. The LSALT peptide was evaluated in terms of its solubility, aggregation state and stability using a variety of biophysical methods.\nIn circular dichroism spectroscopy the ellipticity value at 222 nm is a measure of a-helical content. 50% trifluoroethanol is a hydrophobic solvent and induces α-helical structure if the structure can be induced. All of the peptides tested can be induced to adopt α-helical structure. The peptides are random coils in benign conditions (non-denaturing). The buffer conditions were aqueous phosphate, pH 7.0."}, "[2]": {"target": "T1, rat DPEP-1 (Rattus norvegicus, UniProt P31430)", "T1 construct": "expressed in transfected cells; host or cells: Cos-1", "T1 sequence (P31430 17-384)": "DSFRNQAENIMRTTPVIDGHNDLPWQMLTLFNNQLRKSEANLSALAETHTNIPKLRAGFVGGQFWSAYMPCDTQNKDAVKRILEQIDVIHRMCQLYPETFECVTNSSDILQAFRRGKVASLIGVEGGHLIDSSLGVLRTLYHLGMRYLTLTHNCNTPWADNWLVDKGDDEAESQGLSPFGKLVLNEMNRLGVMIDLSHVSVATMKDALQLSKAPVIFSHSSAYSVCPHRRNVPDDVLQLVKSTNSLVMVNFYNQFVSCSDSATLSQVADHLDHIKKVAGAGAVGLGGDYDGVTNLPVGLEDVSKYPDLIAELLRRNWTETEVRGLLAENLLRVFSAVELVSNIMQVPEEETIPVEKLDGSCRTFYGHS", "assay": "Immunofluorescence binding of Alexa-488 conjugated peptides to Cos-1 cells transfected with rat DPEP-1", "details": "Alexa-488 conjugate, on ice 30 minutes", "experimental": "Cos-1 cells were transiently transfected with either 3 or 5 μg of membrane dipeptidase (DPEP-1) cDNA corresponding to the rat (Shown in FIG. 5A), human (Shown in FIG. 5B), or canine (Shown in FIG. 5E) DPEP-1 gene using Lipofectamine 2000 (Invitrogen) reagent in OptiMEM medium. 24 hours after transfection, DPEP-1 expresisng cells were re-seeded on collagen coated (neutralized) wells in 24 well plates and allowed to grow for 24 hours at 37° C. […] Cells were blocked with FBS/NBSA/Tween in PBS for 30 minutes on ice. Cells were then washed with PBS and incubated with Alexa-488 (green) conjugated LSALT, GFE-1, control peptide or DPEP-1 antibody ( 1/100) (Sigma) on ice for 30 minutes. […] After incubation, cells were washed with PBS and treated with 10 mg/ml biotin transfer peptide (LSALT, GFE-1 or Control Peptide (KGAL)] for 10 minutes. Cells were then washed with PBS and biotin transfer was enabled by UV activation of the aryl azide groups for 15 minutes at 363 nm. Residual fluid was removed and monolayers were lysed either with octyl-glucoside/RIPA or 8M urea. Isolated supernatants were rotated with 50 μl of neutr-avidin agarose beads at 4° C. for 24 hours. Beads were washed with corresponding buffers, boiled in Laemmli buffer and analyzed by western blot using a DPEP-1 specific antibody (Proteintech)."}, "[3]": {"target": "T2, human DPEP3 (Homo sapiens, UniProt Q9H4B8)", "T2 construct": "expressed in transfected cells; host or cells: Cos-1", "T2 sequence (Q9H4B8 36-463)": "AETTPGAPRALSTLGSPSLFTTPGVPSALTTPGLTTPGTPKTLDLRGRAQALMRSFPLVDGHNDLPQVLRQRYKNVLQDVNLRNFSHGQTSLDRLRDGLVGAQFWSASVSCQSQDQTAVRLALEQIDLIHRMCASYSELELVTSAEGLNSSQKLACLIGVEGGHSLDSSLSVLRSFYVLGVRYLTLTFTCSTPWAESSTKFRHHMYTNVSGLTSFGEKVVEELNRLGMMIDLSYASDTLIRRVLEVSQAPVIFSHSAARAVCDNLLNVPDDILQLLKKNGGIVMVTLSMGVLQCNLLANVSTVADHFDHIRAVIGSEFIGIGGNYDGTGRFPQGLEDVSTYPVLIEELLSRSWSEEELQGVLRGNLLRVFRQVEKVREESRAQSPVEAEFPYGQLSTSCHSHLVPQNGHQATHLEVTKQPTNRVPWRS", "assay": "Immunofluorescence binding to Cos-1 cells transfected with human DPEP3", "details": "Alexa-488 conjugate", "experimental": "Cos-1 cells were transiently transfected with either 3 μg of human DPEP-1, DPEP2, or DPEP3 gene using Lipofectamine 2000 (Invitrogen) reagent in OptiMEM medium. 24 hours after transfection, DPEP-1, DPEP2, or DPEP3 expressing cells were re-seeded on collagen coated (neutralized) wells in 24 well plates and allowed to grow for 24 hours at 37° C. […] Cells were blocked with FBS/NBSA/Tween in PBS for 30 minutes on ice. Cells were then washed with PBS and incubated with LSALT or GFE-1, conjugated with Alexa-488 (green). After incubation, cells were washed with PBS and stained with DAPI for 5 minutes on ice. Cells were then washed with PBS and fixed using 4% paraformaldehyde and immunofluorescence microscopy was performed to assess binding. Representative photomicrographs are shown for each experimental condition (n=3) in FIG. 6A. Proteins from DPEP-1, DPEP2 and DPEP3 transfected cells were isolated after 48 hours using octyl-glucoside/RIPA lysis buffer and western blot analysis was performed to assess DPEP-1, DPEP2 and DPEP3 protein expression using specific antibodies; DPEP-1 antibody (Sigma), DPEP2 (Abcam) and DPEP3 (Santacruz). Blots were stripped and reprobed with an anti-β-actin."}, "[4]": {"assay": "Incubation in whole human blood, LC/MS of metabolites", "type": "in vitro ADME", "details": "50 μg/mL, whole human blood (citrate or K2 EDTA), up to 120 min", "experimental": "Plasma was separated for each sample and phosphoric acid added to stabilize peptide at each timepoint. Samples were assessed for LSALT and its' metabolites using LC/MS. LSALT metabolites were identified using PEAKS X and database searches against LSALT and the human proteome. […] Transfected cells were positively selected for using geneticin resistance and subcloned to generate stably transfected DPEP1 clones. Stably transfected DPEP1 HEK cells were resuspended and incubated with biotinylated LSALT fragment peptides (50 μM) for 1 hour at 37° C. before PBS washes. Bound biotinylated peptide was detected via secondary streptavidin fluorescent conjugate (30 min. incubation at 37° C.) and washed with PBS. Peptide binding was analyzed via flow cytometer. Percentage of peptide binding was compared relative to negative control. […] LysM^(gfp) mice were subjected to endotoxemia via intravenous injection of lipopolysaccharide (LPS, O111:B4) at a dose of 5 mg/kg. The kidney was imaged using multiphoton microscopy at 4 hours post-injection. Various LSALT fragments was used intravenously to pretreat mice 10 min. before LPS injection. Inflammation was quantified by manual counting of monocyte adhesion in single microscopy fields (LPS vs. Fragment C; n=3-6 fields/group; ***:p=0.004)."}},
  "note": "Ends that are not written are not given here.",
  "data": [
    {"substance": "H-LSALTPSPSWLKYKAL [LSALT]", "values": [
      {"measurement": "Inducible Helical Structure (50% TFE-benign)", "setting": "[1]; 222 nm", "result": "23,925"},
      {"measurement": "[θ] (222 nm) 50% TFE", "setting": "[1]; 222 nm, 50% TFE", "result": "−72298"},
      {"measurement": "% Inducible Helical Structure (Inducible/50% TFE)", "setting": "[1]; 222 nm, 50% TFE is considered 100% folded", "result": 33.1, "unit": "%"},
      {"measurement": "[θ] (222 nm) Benign (No TFE)", "setting": "[1]; 222 nm, benign buffer (100 mM KCl, 50 mM Na2HPO4/NaH2PO4, pH 7.0)", "result": "−48373"},
      {"measurement": "secondary structure by CD", "setting": "[1]; aqueous buffer / benign conditions, pH 7.0", "result": "minima at 222 nm characteristic of a α-helical conformation"},
      {"measurement": "binding of fluorescently labelled peptide to rat DPEP-1 transfected Cos-1 cells", "setting": "[2]", "result": "Binds"},
      {"measurement": "binding to human DPEP3 transfected Cos-1 cells", "setting": "[3]", "result": "does not Bind"},
      {"measurement": "metabolism in whole blood", "setting": "[4]", "result": "metabolized in whole blood into smaller fragments"}
    ]}
  ]
}
